In PMC9187652, “Investigating the ligand agonism and antagonism at the D2long receptor by dynamic mass redistribution” (Scientific Reports, 2022):
Read-outs that look alike come from different tables or passages of the source. Marks after values point to notes of the source that are not given here. *1 amine or outer side, *2 acyl side, *3 side chain or, on linkers, in order; H or OH if unused. Where a SMILES comes first, the peptide text is derived from it. Bridges are numbered along the chain shown (N, C = ends). [ ]: non-standard residue; d: D form. The star is where a group is joined. Leu(3R-OH,Nα-propionyl) = CCC(=O)N[C@H](C(=O)*)[C@H](O)C(C)C; X1 = CC(C)[C@@H](O[*:3])[C@H](N[*:1])C(=O)[*:2]; NMeT = CN[C@H](C(=O)O)[C@@H](C)O; dPhLac = O=C(O)[C@H](O)Cc1ccccc1; NMeA = CN[C@@H](C)C(=O)O; NMeDha = C=C(NC)C(=O)O

How the values were obtained:
D2long receptors = conditions: read-out: EC50 (DMR); cited from earlier work
CHO-K1 hD2longR cells = format: cell-based, human
[1] = tested on: untransfected CHO-K1 cells; assay: DMR off-target test in untransfected CHO-K1 cells
[2] = biological target: T1, human dopamine D2long receptor (Homo sapiens, UniProt P14416)
[3] = biological target: T1, human dopamine D2long receptor; remark: listed apart in the source
[4] = biological target: T1, human dopamine D2long receptor; assay: cell-based; conditions: CHO-K1, read-out: DMR Emax (%)
hD2longR [5] = biological target: T2, hD2longR (Homo sapiens, UniProt P14416); format: cell-based
D2R = conditions: cited from earlier work; for Emax, [35S]GTPγS binding: relative to dopamine
hD2longR [6] = biological target: T2, hD2longR; conditions: cited from earlier work
[7] = CHO-K1 hD2longR cells pretreated with the agent (PTX, CTX about 20 h; FR900359 2 h; forskolin 1 μM 40 min; EGTA 2 mM in assay buffer)

T1 sequence (P14416 whole entry): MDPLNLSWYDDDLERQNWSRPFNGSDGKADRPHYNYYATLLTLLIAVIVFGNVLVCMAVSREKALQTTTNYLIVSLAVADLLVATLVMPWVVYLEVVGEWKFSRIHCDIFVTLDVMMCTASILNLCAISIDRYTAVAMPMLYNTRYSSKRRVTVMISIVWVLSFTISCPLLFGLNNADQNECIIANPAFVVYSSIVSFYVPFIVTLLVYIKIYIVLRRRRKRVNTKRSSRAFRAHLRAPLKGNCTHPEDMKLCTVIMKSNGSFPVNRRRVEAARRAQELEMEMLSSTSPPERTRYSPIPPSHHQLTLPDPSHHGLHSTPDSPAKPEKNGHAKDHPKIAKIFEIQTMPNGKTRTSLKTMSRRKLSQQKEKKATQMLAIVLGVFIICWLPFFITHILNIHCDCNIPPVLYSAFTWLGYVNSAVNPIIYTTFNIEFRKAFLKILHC
T2 sequence (P14416 whole entry): as above

## NCCc1ccc(O)c(O)c1 [Dopamine, dopamine]
D2long receptors
  EC50: 11 nM

## O=C(O)CN(CCOCCOCCN(CC(=O)O)CC(=O)O)CC(=O)O [EGTA]
CHO-K1 hD2longR cells; [7]
  effect on the quinpirole induced DMR response: completely abrogated the quinpirole-induced response

## C=C1C(=O)N[C@@H](C)C(=O)N(C)[C@@H](C)C(=O)N[C@@H]([C@H](OC(=O)[C@@H](NC(=O)CC)[C@H](O)C(C)C)C(C)C)C(=O)N(C)[C@@H]([C@@H](C)OC)C(=O)O[C@H](C(C)C)[C@H](NC(C)=O)C(=O)O[C@H](Cc2ccccc2)C(=O)N1C [FR900359] (Ac-[X1][dPhLac][NMeDha]A[NMeA][X1](Leu(3R-OH,Nα-propionyl))[NMeT](Me); ester 1-C)
CHO-K1 hD2longR cells
  DMR response induced by the agent alone in CHO-K1 hD2longR cells: did not induce a DMR response
CHO-K1 hD2longR cells; [7]
  effect on the quinpirole induced DMR response: did not show a pronounced effect

## O=C(CCCN1CCC(O)(c2ccc(Cl)cc2)CC1)c1ccc(F)cc1 [Haloperidol, haloperidol]
[1]
  DMR response in untransfected CHO-K1 cells (off-target activity): slight negative DMR response

## CNc1cc(OC)c(C(=O)NC2CCN(Cc3ccccc3)C2C)cc1Cl (centres unmarked) [Nemonapride, nemonapride]
[1]
  DMR response in untransfected CHO-K1 cells (off-target activity): slight negative DMR response
[2]
  Hill Slope of inhibition curve: −1.95

## CCCN[C@H]1CCc2nc(N)sc2C1 [Pramipexole, pramipexole]
[3]
  quality of action in the DMR assay (full / partial agonist): full agonists
[4]
  Emax: 97 ± 0.1%
D2long receptors
  EC50: 8.7 nM

## CCN1CCC[C@H]1CNC(=O)c1cc(S(N)(=O)=O)ccc1OC [S-(−)-sulpiride]
[2]; antagonist mode, versus 30 nM quinpirole
  Hill Slope of inhibition curve: −1.18

## C=C[C@@]1(C)CC(=O)[C@]2(O)[C@@]3(C)[C@@H](O)CCC(C)(C)[C@@H]3[C@H](O)[C@H](OC(C)=O)[C@@]2(C)O1 [forskolin]
CHO-K1 hD2longR cells; [7]
  effect on the quinpirole induced DMR response: increase in quinpirole efficacy
CHO-K1 hD2longR cells; forskolin alone
  time of minimum of the forskolin DMR signal: about 5 min
CHO-K1 hD2longR cells; without quinpirole, thapsigargin in EGTA (2 mM) containing buffer, forskolin 1 μM
  DMR response induced by the agent alone in CHO-K1 hD2longR cells: negative DMR signal
hD2longR [5]; forskolin 1 μM for 40 min
  effect on receptor expression ([3H]N-methylspiperone binding): did not exhibit a marked effect on the receptor expression
hD2longR [5]; forskolin 1 μM for 20 h
  effect on receptor expression ([3H]N-methylspiperone binding): strong increase in specific radioligand binding

## C/C=C(/C)C(=O)O[C@H]1C(C)=C2[C@H]([C@@H]1OC(=O)CCCCCCC)[C@@](C)(OC(C)=O)C[C@H](OC(=O)CCC)[C@@]1(O)[C@H]2OC(=O)[C@@]1(C)O [thapsigargin]
CHO-K1 hD2longR cells
  DMR response induced by the agent alone in CHO-K1 hD2longR cells: rapidly decreasing negative DMR signal
CHO-K1 hD2longR cells; EGTA containing assay buffer
  time to plateau of the thapsigargin-induced negative DMR signal: approximately 15 min
CHO-K1 hD2longR cells; thapsigargin (1 μM or 2 μM, 20 min) in combination with EGTA (2 mM)
  effect on the quinpirole induced DMR response: completely abrogated the quinpirole-induced response

## R-(−)-apomorphine
[3]
  DMR Emax (%): 102 ± 5%
  quality of action in the DMR assay (full / partial agonist): full agonist
D2R; ref 42
  pEC50, [35S]GTPγS binding: 7.66
  Emax, [35S]GTPγS binding: 53%
D2R; ref 49
  pEC50, [35S]GTPγS binding: 6.76
  Emax, [35S]GTPγS binding: 90%
[1]
  DMR response in untransfected CHO-K1 cells (off-target activity): did not elicit a DMR signal
hD2longR [6]
  β-arrestin2 recruitment Emax (%): 87 ± 3^a %

## cholera toxin [CTX]
CHO-K1 hD2longR cells
  DMR response induced by the agent alone in CHO-K1 hD2longR cells: did not induce a DMR response
  effect on the quinpirole induced DMR response: apparent increase in quinpirole efficacy
hD2longR [5]
  effect on receptor expression ([3H]N-methylspiperone binding): slight up-regulation

## pertussis toxin [PTX]
CHO-K1 hD2longR cells
  DMR response induced by the agent alone in CHO-K1 hD2longR cells: did not induce a DMR response
CHO-K1 hD2longR cells; [7]
  effect on the quinpirole induced DMR response: concentration-dependent decrease in the DMR response
